Assay [1] addresses CnFTase (C. neoformans farnesyl transferase, α/β heterodimer) (Cryptococcus neoformans, UniProt J9VSJ6+T2BPA1). Kind of assay: CnFTase activity assay: farnesylation of a dansylated (fluorescent) peptide, inhibitor concentration giving half-maximal enzyme rates at 1 μM FPP (1μMIC50). Conditions: read-out: CnFTase IC50 (1μMIC50), condition A: 20 nM CnFTase, dansyl-GCVVM 0.62 μM, Tris-HCl pH 7.5, ZnCl2 12.5 μM, 2.5% DMSO, room temperature, triplicate.
Method: CnFTase activity assay. […] Final CnFTase concentrations (from 5× or 10× stocks in 20 mM Tris-HCl pH7.5, 20 mM NaCl, 5 μM ZnCl2, 1 mM TCEP, 1 mg/mL BSA): A, 20 nM; B: 4.4, 6.7, 10 nM triplets. […] For experiments that included phosphate, pH 7.5 stock was added to the desired final concentration. […] Data for determining ^1μMIC50 values (condition A) was collected in triplicate. Initial rates, vo, were extracted by fitting a straight line to the initial to tmax seconds of the reaction progress curves, where tmax values were selected by inspection and entered into curator tables for automated analysis. 1μMIC50 were determined by fitting a single-site Langmuir ligand-binding isotherm to the dependence of vo on inhibitor concentration (2, see below). All other experiments (condition B) all other experiments (condition B) used three different CnFTase concentrations, collecting progress curves as a function of FPP, inhibitor, and phosphate concentrations. The resulting triplet of progress curves was used to extract vo values automatically by minimizing
If x is an inhibitor concentration, then IC50=Ka^−1. […] In general, baseline signals, σ, (α or β) can be constant, or linear functions of ligand concentration x

For a further assay, the system named is C. neoformans. The assay is described as follows: Minimum inhibitory concentration (MIC): disc diffusion and broth microdilution. Conditions: Cryptococcus neoformans.
The subject of assay [2] is C. neoformans FTase (CnFTase). Kind of assay: CnFTase activity assay, farnesylation of a fluorescent (dansylated) peptide, 1μMIC50. The assay is classed as biochemical, Cryptococcus neoformans. Particulars: pairwise comparison of analogues differing in one R group. How it is done:
The library of 23 compounds contained leads with 60- to 150-fold enhanced ^1μMIC50 values.
CnFTase activity assay. The farnesyl transferase activity was measured by measuring the time dependence of the fluorescence emission intensity increase due to farnesylation of a dansylated peptide (Cassidy, P. B, et al., Methods Enzymol, 1995, 250, 30-43). Measurements were taken at room temperature in a 96-well black polystyrene, half area, flat bottom, non-binding surface plate using a SpectraMax M5e plate reader (excitation wavelength, 340 nm; emission wavelength 525 nm; emission high-pass filter, 455 nm). […] Final CnFTase concentrations (from 5× or 10× stocks in 20 mM Tris-HCl pH7.5, 20 mM NaCl, 5 μM ZnCl2, 1 mM TCEP, 1 mg/mL BSA): A, 20 nM; B: 4.4, 6.7, 10 nM triplets. […] For experiments that included phosphate, pH 7.5 stock was added to the desired final concentration. Data was analyzed using Python scripts for the Biomolecular Computing (BMC) package, included in the Dryad electronic repository. Data for determining ^1μMIC50 values (condition A) was collected in triplicate. Initial rates, vo, were extracted by fitting a straight line to the initial to tmax seconds of the reaction progress curves, where tmax values were selected by inspection and entered into curator tables for automated analysis. 1μMIC50 were determined by fitting a single-site Langmuir ligand-binding isotherm to the dependence of vo on inhibitor concentration (2, see below). All other experiments (condition B) […] used three different CnFTase concentrations, collecting progress curves as a function of FPP, inhibitor, and phosphate concentrations. The resulting triplet of progress curves was used to extract vo values automatically by minimizing
Single-site binding isotherms. Signals, S, resulting from a binding reaction were fit to
where α and β are the baselines associated with the apo-protein and its ligand complex, respectively, and y fractional occupancy of the binding site
If x is an inhibitor concentration, then IC50=Ka^−1. For Michaelis-Menten analysis 2 is reduced to a standard form (Bahar, I.; Jernigan, R. L.; Dill, K. A. Protein Actions, principles & modeling. Garland Science: 2017) with S=vo (initial rates), α=0, β=Vmax (maximal velocity), and KM=Ka^−1 (substrate dissociation constant). In general, baseline signals, σ, (α or β) can be constant, or linear functions of ligand concentration x

Values after ≈ are worked out from the molar mass of the structure shown.

CnFTase (C. neoformans farnesyl transferase, α/β heterodimer), sequence (J9VSJ6 entry or part of it): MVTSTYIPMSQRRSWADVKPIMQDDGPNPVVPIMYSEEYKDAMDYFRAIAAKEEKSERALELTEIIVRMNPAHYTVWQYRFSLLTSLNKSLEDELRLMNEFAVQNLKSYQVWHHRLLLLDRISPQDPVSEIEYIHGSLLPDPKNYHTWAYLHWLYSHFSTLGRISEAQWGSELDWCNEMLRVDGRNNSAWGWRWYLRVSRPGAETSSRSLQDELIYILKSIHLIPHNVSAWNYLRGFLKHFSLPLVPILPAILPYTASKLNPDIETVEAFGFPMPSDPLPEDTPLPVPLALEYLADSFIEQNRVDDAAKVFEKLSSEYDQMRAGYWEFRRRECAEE
CnFTase (C. neoformans farnesyl transferase, α/β heterodimer), sequence (T2BPA1 entry or part of it): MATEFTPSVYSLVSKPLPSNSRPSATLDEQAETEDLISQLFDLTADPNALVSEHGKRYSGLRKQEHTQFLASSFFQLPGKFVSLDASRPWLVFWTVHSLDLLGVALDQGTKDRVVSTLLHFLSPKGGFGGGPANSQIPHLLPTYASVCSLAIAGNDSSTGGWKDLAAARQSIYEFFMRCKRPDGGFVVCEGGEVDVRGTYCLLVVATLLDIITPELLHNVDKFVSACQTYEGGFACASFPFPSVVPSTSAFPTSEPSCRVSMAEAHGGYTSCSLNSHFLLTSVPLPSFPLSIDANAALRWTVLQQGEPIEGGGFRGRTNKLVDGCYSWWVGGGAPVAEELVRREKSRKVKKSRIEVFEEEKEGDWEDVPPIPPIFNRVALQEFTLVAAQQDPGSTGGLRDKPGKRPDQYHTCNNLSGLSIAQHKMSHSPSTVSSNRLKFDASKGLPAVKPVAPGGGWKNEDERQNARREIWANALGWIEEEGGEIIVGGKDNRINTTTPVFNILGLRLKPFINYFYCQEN

As for `CCCC[C@H]1CN(c2cccc(Cl)c2)C(=O)CN1Cc1cncn1Cc1ccc(C#N)cc1` [Compound 2a, (S)-4-((5-((2-Butyl-4-(3-chlorophenyl)-5-oxopiperazin-1-yl)methyl)-1H-imidazol-1-yl)methyl)benzonitrile], in assay [1], the IC50 is 0.1 ± 0.01 µM.

For `CCCC[C@H]1CN(c2cccc(Cl)c2)C(=O)CN1Cc1cncn1Cc1ccc(Br)cc1` [Compound 2b, (S)-4-((1-(4-Bromobenzyl)-1H-imidazol-5-yl)methyl)-5-butyl-1-(3-chlorophenyl)piperazin-2-one], the IC50 in assay [1] was determined as 1.1 ± 0.78 µM.

Regarding `CCCC[C@H]1CN(c2cccc(Cl)c2)C(=O)CN1Cc1cncn1Cc1ccc(Cl)cc1` [Compound 2c, (S)-5-Butyl-4-((1-(4-chlorobenzyl)-1H-imidazol-5-yl)methyl)-1-(3-chlorophenyl)piperazin-2-one], the IC50 in assay [1] is 1.6 ± 0.8 µM.

For `CCCC[C@H]1CN(c2cccc(OC(F)(F)F)c2)C(=O)CN1Cc1cncn1Cc1ccc(C#N)cc1` [Compound 2d, (S)-4-((5-((2-butyl-5-oxo-4-(3-(trifluoromethoxy)-phenyl)piperazin-1-yl)methyl)-1H-imidazol-1-yl)methyl)benzonitrile], the IC50 in assay [1] turned out to be 0.34 ± 0.22 µM.

Take `CCCC[C@H]1CN(c2cccc(OC(F)(F)F)c2)C(=O)CN1Cc1cncn1Cc1ccc(Cl)cc1` [Compound 2e]: the MIC in the assay on C. neoformans fell in the range of 3 to 6 µM (≈ 1.56 to 3.13 µg/mL). Further, in assay [1], the IC50 stood at 0.26 ± 0.13 µM.

On to `CCCC[C@H]1CN(c2cccc(OC(F)(F)F)c2)C(=O)CN1Cc1cncn1Cc1ccc(F)cc1` [Compound 2g, (S)-5-butyl-4-((1-(4-fluorobenzyl)-1H-imidazol-5-yl)methyl)-1-(3-(trifluoromethoxy)phenyl)piperazin-2-one], for which, in assay [1], the IC50 was determined as 0.71 ± 0.24 µM.

In the case of `CCCC[C@H]1CN(c2cccc(OC(F)(F)F)c2)C(=O)CN1Cc1cncn1Cc1ccc(C(F)(F)F)cc1` [Compound 2h, (S)-5-Butyl-1-(3-(trifluoromethoxy)phenyl)-4-((1-(4-(trifluoromethyl)benzyl)-1H-imidazol-5-yl)methyl)piperazin-2-one], in the assay on C. neoformans, the MIC is 3 to 6 µM (≈ 1.66 to 3.33 µg/mL). Moreover, the IC50 in assay [1] came out at 0.28 ± 0.15 µM.

`CCCC[C@H]1CN(c2cccc(OC(F)(F)F)c2)C(=O)CN1Cc1cncn1Cc1ccccc1` [Compound 2i, (S)-4-((1-Benzyl-1H-imidazol-5-yl)methyl)-5-butyl-1-(3-(trifluoromethoxy)phenyl)piperazin-2-one]: the IC50 in assay [1] was 1.9 ± 1.7 µM.

For `N#Cc1ccc(Cn2cncc2CN2CCN(c3cccc(OC(F)(F)F)c3)C(=O)C2)cc1` [Compound 2j, (S)-4-((5-((3-Oxo-4-(3-(trifluoromethoxy)phenyl)piperazin-1-yl)methyl)-1H-imidazol-1-yl)methyl)benzonitrile], the “change of affinity relative to the comparator analogue (cf.)” value in assay [2] is “had little effect or were slightly deleterious”. For the same compound, in assay [1], the IC50 amounted to 2.7 ± 1.1 µM.

With `CCC[C@H]1CN(c2cccc(OC(F)(F)F)c2)C(=O)CN1Cc1cncn1Cc1ccc(Br)cc1` [Compound 2k, (S)-4-((1-(4-Bromobenzyl)-1H-imidazol-5-yl)methyl)-5-propyl-1-(3-(trifluoromethoxy)phenyl) piperazin-2-one], the “change of affinity relative to the comparator analogue (cf.)” value in assay [2] is “reduced affinity”. This compound also yielded an MIC in the assay with C. neoformans of 3 to 6 µM (≈ 1.65 to 3.31 µg/mL). Also, the IC50 in assay [1] is 1.1 ± 0.51 µM.

Regarding `CCCCC[C@H]1CN(c2cccc(OC(F)(F)F)c2)C(=O)CN1Cc1cncn1Cc1ccc(Br)cc1` [Compound 2l, (S)-4-((1-(4-Bromobenzyl)-1H-imidazol-5-yl)methyl)-5-pentyl-1-(3-(trifluoromethoxy)phenyl)piperazin-2-one], the IC50 in assay [1] stood at 0.16 ± 0.02 µM.

Regarding `CCCC[C@H]1CN(c2ccccc2)C(=O)CN1Cc1cncn1Cc1ccc(Br)cc1` [Compound 2m, (S)-4-((1-(4-Bromobenzyl)-1H-imidazol-5-yl)methyl)-5-butyl-1-phenylpiperazin-2-one], the IC50 in assay [1] stood at 0.92 ± 0.51 µM.

In the case of `CCCC[C@H]1CN(c2cccc(C)c2C)C(=O)CN1Cc1cncn1Cc1ccc(C#N)cc1` [Compound 2n, (S)-4-((5-((2-butyl-4-(2,3-dimethylphenyl)-5-oxopiperazin-1-yl)methyl)-1H-imidazol-1-yl)methyl)benzonitrile], the “change of affinity relative to the comparator analogue (cf.)” value in assay [2] was “had little effect or were slightly deleterious”. The IC50 in assay [1] came out at 2.2 ± 1.3 µM.

Take `CCCC[C@H]1CN(c2cccc(OC(F)(F)F)c2)C(=O)CN1Cc1cncn1Cc1cccc(C#N)c1` [Compound 2o, (S)-3-((5-((2-Butyl-5-oxo-4-(3-(trifluoromethoxy)-phenyl)piperazin-1-yl)methyl)-1H-imidazol-1-yl)methyl)benzonitrile]: the IC50 in assay [1] worked out at 0.74 ± 0.31 µM.

Turning to `CCCC[C@H]1CN(c2cccc(OC(F)(F)F)c2)C(=O)CN1Cc1cncn1Cc1ccc(F)c(C#N)c1` [Compound 2p, (S)-5-((5-((2-Butyl-5-oxo-4-(3-(trifluoromethoxy)phenyl)piperazin-1-yl)methyl)-1H-imidazol-1-yl)methyl)-2-fluorobenzonitrile], the IC50 in assay [1] was determined as 0.18 ± 0.1 µM.

As for `N#Cc1cc(Cn2cncc2CN2CCN(c3cccc(OC(F)(F)F)c3)C(=O)C2)ccc1F` [Compound 2r, 2-Fluoro-5-((5-((3-oxo-4-(3-(trifluoromethoxy)phenyl)piperazin-1-yl)methyl)-1H-imidazol-1-yl)methyl)benzonitrile], in assay [1], the IC50 was determined as 0.55 ± 0.03 µM.

For the compound `N#Cc1ccc(Cn2cncc2CN2CCN(c3cccc(OC(F)(F)F)c3)C(=O)C2)cc1F` [Compound 2s, 2-Fluoro-4-((5-((3-Oxo-4-(3-(trifluoromethoxy)phenyl)piperazin-1-yl)methyl)-1H-imidazol-1-yl)methyl)benzonitrile], the “change of affinity relative to the comparator analogue (cf.)” value in assay [2] was found to be 20 fold. Further, the IC50 in assay [1] was found to be 0.12 ± 0.04 µM.

On to `CCCC[C@H]1CN(c2cccc(OC(F)(F)F)c2)C(=O)CN1Cc1cncn1Cc1ccc(Oc2ccccc2)c(C#N)c1` [Compound 2t, (S)-5-((5-((2-Butyl-5-oxo-4-(3-(trifluoromethoxy)phenyl)-piperazin-1-yl)methyl)-1H-imidazol-1-yl)methyl)-2-phenoxybenzonitrile], for which, in assay [1], the IC50 is 0.21 ± 0.1 µM.

As to `CCCC[C@H]1CN(c2cccc(OC(F)(F)F)c2)C(=O)CN1Cc1cncn1Cc1ccc(C#N)c(Oc2ccccc2)c1` [Compound 2u, (S)-4-((5-((2-butyl-5-oxo-4-(3-(trifluoromethoxy)phenyl)-piperazin-1-yl)methyl)-1H-imidazol-1-yl)methyl)-2-phenoxybenzonitrile], the “change of affinity relative to the comparator analogue (cf.)” value in assay [2] is on record as “did not alter affinities”. Further, the IC50 in assay [1] is 0.15 ± 0.06 µM.

As for `N#Cc1cc(Cn2cncc2CN2CCN(c3cccc(OC(F)(F)F)c3)C(=O)C2)ccc1Oc1ccccc1` [Compound 2v], the IC50 in assay [1] was 0.32 ± 0.1 µM.

As to `N#Cc1ccc(Cn2cncc2CN2CCN(c3cccc(OC(F)(F)F)c3)C(=O)C2)cc1Oc1ccccc1` [Compound 2w, 4-((5-((3-Oxo-4-(3-(trifluoromethoxy)phenyl)piperazin-1-yl)methyl)-1H-imidazol-1-yl)methyl)-2-phenoxybenzonitrile], in assay [2], the “change of affinity relative to the comparator analogue (cf.)” value is “did not alter affinities”. Besides, the IC50 in assay [1] was determined as 2.6 ± 1.4 µM.

As for `CCCCC[C@H]1CN(c2cccc(OC(F)(F)F)c2)C(=O)CN1Cc1cncn1Cc1ccc(Br)cc1` [Compound 21, (S)-4-((1-(4-Bromobenzyl)-1H-imidazol-5-yl)methyl)-5-pentyl-1-(3-(trifluoromethoxy)phenyl)piperazin-2-one], the “change of affinity relative to the comparator analogue (cf.)” value in assay [2] is “showed little improvement”. This compound displayed an MIC with C. neoformans of 3 to 6 µM (≈ 1.74 to 3.48 µg/mL).

The values above are taken from US20250114350A1, “INHIBITORS OF […] AS ANTIFUNGAL AGENTS” (Regents of the University of Minnesota, priority 2023, published 2025).
